Results: the kinase profiling compilation of Christmann-Franck et al. (2016)

Legend:
Experiment in all cases: KINOMEscan competition binding
Conditions in all cases: compound 10.0 µM; call rule not given here
STK17A (human) = STK17A (human) (UniProt Q9UEE5)
MERTK (human) = MERTK (human) (UniProt Q12866)
MAP4K1 (human) = MAP4K1 (human) (UniProt Q92918)
EPHB1 (human) = EPHB1 (human) (UniProt P54762)
MKNK2 (human) = MKNK2 (human) (UniProt Q9HBH9)
STK17B (human) = STK17B (human) (UniProt O94768)
GSK3A (human) = GSK3A (human) (UniProt P49840)
FRK (human) = FRK (human) (UniProt P42685)
PRKAA1 (human) = PRKAA1 (human) (UniProt Q13131)
ACVR2B (human) = ACVR2B (human) (UniProt Q13705)
SRPK1 (human) = SRPK1 (human) (UniProt Q96SB4)
CSNK2A2 (human) = CSNK2A2 (human) (UniProt P19784)
MET (human) = MET (human) (UniProt P08581)
Sequence of MET (human) (P08581 whole entry, looked up): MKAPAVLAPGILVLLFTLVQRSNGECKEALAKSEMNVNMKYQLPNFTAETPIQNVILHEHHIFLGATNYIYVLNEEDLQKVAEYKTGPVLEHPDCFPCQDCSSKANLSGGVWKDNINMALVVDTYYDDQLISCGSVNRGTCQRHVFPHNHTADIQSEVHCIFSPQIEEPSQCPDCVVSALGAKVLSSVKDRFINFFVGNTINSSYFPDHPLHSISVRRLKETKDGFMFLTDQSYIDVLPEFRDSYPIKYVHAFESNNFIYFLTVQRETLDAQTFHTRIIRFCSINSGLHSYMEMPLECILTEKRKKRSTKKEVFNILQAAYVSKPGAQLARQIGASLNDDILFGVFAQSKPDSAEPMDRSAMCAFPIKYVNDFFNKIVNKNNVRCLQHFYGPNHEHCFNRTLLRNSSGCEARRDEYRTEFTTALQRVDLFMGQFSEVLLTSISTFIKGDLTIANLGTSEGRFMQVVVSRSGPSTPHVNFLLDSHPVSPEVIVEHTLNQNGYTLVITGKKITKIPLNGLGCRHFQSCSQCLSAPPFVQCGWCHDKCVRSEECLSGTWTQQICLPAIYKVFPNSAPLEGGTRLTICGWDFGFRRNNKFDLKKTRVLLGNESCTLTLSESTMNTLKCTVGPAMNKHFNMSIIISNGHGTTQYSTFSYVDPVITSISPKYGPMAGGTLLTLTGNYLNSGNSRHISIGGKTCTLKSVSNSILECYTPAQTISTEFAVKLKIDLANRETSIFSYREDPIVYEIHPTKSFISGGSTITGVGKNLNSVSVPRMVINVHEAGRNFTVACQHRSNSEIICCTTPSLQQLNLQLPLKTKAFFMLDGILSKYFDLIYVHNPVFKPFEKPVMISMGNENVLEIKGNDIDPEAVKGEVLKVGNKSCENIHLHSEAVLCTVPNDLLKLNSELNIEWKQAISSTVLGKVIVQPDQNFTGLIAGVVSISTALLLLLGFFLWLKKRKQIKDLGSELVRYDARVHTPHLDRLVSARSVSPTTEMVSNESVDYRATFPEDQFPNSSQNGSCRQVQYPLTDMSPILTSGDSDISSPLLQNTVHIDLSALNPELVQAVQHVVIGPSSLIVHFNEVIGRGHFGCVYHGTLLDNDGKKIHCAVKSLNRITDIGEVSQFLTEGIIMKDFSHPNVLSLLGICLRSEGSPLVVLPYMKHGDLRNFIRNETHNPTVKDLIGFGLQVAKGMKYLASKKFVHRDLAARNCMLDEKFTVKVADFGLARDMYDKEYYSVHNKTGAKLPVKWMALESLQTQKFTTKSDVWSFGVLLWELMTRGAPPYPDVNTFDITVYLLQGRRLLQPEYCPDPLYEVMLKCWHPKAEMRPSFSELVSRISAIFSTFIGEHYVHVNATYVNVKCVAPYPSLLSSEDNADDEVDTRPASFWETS

LCK (human) = LCK (human) (UniProt P06239)
TNNI3K (human) = TNNI3K (human) (UniProt Q59H18)
PDGFRB (human) = PDGFRB (human) (UniProt P09619)
TTK (human) = TTK (human) (UniProt P33981)
PDPK1 (human) = PDPK1 (human) (UniProt O15530)
ABL1 (human) = ABL1 (human) (UniProt P00519)
EPHA2 (human) = EPHA2 (human) (UniProt P29317)
[1] = biological target: JAK2 JH1 catalytic (human) (UniProt O60674)
FGR (human) = FGR (human) (UniProt P09769)
CAMKK1 (human) = CAMKK1 (human) (UniProt Q8N5S9)
SLK (human) = SLK (human) (UniProt Q9H2G2)
MAPK12 (human) = MAPK12 (human) (UniProt P53778)
CSNK1A1L (human) = CSNK1A1L (human) (UniProt Q8N752)
EPHA5 (human) = EPHA5 (human) (UniProt P54756)
TEK (human) = TEK (human) (UniProt Q02763)
Sequence of TEK (human) (Q02763 whole entry, looked up): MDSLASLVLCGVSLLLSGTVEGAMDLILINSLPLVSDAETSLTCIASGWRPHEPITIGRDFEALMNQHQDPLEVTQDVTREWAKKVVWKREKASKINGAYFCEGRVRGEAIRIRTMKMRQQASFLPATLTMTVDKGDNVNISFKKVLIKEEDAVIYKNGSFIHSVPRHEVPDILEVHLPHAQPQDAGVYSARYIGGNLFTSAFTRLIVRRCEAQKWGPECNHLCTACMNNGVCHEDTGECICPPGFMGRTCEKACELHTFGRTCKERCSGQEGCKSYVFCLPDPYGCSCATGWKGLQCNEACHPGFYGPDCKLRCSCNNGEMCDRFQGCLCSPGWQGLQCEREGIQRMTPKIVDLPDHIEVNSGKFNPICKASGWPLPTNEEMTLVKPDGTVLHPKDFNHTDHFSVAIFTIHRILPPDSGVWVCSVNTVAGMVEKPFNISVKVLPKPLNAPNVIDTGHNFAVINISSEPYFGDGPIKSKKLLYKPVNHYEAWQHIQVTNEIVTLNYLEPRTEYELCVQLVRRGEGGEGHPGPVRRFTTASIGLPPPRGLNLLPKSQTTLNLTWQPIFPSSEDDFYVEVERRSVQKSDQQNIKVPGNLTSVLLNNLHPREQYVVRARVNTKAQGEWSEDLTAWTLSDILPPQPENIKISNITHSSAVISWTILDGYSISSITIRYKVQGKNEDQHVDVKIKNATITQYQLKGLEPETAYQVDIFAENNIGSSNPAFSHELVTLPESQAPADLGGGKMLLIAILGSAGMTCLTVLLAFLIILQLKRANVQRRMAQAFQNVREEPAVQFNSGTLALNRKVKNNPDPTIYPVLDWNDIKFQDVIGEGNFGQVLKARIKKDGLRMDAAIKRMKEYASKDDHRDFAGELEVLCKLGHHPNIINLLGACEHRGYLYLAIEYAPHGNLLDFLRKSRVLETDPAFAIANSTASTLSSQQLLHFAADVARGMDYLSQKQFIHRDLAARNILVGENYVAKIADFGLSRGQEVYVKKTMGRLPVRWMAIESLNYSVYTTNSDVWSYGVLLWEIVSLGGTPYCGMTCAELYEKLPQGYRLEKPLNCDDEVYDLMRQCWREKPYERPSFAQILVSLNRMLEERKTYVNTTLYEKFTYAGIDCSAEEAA

ITK (human) = ITK (human) (UniProt Q08881)
Sequence of ITK (human) (Q08881 whole entry, looked up): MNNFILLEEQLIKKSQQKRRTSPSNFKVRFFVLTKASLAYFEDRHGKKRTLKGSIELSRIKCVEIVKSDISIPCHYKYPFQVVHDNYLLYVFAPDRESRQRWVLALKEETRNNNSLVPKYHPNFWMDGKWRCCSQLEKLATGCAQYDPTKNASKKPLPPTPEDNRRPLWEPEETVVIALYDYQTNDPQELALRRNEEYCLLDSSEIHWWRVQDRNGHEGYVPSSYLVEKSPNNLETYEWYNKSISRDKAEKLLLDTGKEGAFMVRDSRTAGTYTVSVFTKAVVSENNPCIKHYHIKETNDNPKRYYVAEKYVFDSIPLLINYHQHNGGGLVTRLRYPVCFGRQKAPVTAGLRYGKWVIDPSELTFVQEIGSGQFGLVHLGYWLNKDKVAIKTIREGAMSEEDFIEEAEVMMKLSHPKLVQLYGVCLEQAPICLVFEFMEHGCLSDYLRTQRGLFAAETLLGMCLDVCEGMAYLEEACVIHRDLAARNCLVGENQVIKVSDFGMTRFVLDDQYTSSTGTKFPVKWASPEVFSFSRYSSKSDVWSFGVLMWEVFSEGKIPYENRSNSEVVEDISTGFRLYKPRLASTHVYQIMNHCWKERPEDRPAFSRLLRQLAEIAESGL

ACVRL1 (human) = ACVRL1 (human) (UniProt P37023)
CDK2 (human) = CDK2 (human) (UniProt P24941)
DAPK2 (human) = DAPK2 (human) (UniProt Q9UIK4)
MAP4K5 (human) = MAP4K5 (human) (UniProt Q9Y4K4)
Sequence of MAP4K5 (human) (Q9Y4K4 whole entry, looked up): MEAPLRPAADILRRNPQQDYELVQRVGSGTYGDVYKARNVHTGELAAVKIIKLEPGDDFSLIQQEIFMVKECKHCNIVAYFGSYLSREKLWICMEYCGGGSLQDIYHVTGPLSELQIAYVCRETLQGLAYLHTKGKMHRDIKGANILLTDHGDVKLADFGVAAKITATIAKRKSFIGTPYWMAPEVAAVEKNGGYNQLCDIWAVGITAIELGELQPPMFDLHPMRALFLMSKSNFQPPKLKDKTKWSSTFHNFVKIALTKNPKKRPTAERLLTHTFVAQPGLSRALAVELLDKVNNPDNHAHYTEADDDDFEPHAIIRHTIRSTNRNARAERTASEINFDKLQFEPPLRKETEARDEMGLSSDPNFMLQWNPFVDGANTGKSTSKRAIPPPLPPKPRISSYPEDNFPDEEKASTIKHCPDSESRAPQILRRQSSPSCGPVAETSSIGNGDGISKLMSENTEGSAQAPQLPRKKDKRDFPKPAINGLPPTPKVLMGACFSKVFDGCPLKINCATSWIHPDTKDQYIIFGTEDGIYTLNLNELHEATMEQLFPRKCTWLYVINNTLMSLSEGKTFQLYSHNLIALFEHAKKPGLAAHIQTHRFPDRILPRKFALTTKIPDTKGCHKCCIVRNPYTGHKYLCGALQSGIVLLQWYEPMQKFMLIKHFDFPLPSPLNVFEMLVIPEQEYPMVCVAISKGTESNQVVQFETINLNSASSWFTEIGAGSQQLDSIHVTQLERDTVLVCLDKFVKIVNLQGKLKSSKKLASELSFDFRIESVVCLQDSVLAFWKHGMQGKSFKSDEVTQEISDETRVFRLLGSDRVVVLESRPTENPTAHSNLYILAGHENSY

ULK3 (human) = ULK3 (human) (UniProt Q6PHR2)
DAPK3 (human) = DAPK3 (human) (UniProt O43293)
CSNK1G2 (human) = CSNK1G2 (human) (UniProt P78368)
EPHA1 (human) = EPHA1 (human) (UniProt P21709)
PLK4 (human) = PLK4 (human) (UniProt O00444)
Sequence of PLK4 (human) (O00444 whole entry, looked up): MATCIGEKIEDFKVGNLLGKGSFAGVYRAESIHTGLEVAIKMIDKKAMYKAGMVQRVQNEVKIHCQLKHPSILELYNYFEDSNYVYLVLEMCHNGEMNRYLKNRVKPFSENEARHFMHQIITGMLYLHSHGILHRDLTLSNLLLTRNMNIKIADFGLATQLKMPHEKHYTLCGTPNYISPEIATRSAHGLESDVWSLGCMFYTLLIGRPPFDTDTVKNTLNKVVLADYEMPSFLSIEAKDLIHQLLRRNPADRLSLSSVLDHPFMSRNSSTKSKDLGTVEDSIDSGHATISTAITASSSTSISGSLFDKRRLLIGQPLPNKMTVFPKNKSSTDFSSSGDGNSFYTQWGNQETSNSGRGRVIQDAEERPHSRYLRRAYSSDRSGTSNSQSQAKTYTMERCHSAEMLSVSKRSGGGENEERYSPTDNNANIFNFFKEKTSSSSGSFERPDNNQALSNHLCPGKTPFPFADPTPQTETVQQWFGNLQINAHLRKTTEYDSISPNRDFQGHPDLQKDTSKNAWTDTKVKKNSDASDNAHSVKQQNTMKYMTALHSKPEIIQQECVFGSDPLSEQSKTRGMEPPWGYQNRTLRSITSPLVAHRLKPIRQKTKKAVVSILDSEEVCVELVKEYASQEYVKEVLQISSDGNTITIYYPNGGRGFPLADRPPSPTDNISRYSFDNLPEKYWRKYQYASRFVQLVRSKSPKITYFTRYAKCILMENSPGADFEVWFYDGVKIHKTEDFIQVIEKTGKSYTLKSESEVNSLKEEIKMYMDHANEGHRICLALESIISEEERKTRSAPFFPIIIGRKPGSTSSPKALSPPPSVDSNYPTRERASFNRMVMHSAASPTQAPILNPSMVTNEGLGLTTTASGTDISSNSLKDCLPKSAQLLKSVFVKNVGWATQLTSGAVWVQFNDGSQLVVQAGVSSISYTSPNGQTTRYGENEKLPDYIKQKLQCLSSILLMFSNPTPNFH

TNK1 (human) = TNK1 (human) (UniProt Q13470)
HCK (human) = HCK (human) (UniProt P08631)

A kinase still bound, per cent of control (STK17A (human)) of 0%, a kinase still bound, per cent of control (MERTK (human)) of 0% and a kinase still bound, per cent of control (MAP4K1 (human)) of 0.5% were found for `CCS(=O)(=O)Nc1ccc2c(c1)[C@H](/C(=N/c1ccc(CN3CCCCC3)cc1)c1ccccc1)C(=O)N2` in this work. It also gave a kinase still bound, per cent of control (EPHB1 (human)) of 0%, a kinase still bound, per cent of control (MKNK2 (human)) of 2.1% and a kinase still bound, per cent of control (STK17B (human)) of 0.1%. It also gave a kinase still bound, per cent of control (GSK3A (human)) of 0.85%, a kinase still bound, per cent of control (FRK (human)) of 0.5% and a kinase still bound, per cent of control (PRKAA1 (human)) of 0%. The kinase still bound, per cent of control (ACVR2B (human)) was 2.4%, the kinase still bound, per cent of control (SRPK1 (human)) was 0% and the kinase still bound, per cent of control (CSNK2A2 (human)) was 0%. The kinase still bound, per cent of control (MET (human)) was 0.3%, the kinase still bound, per cent of control (LCK (human)) was 0% and the kinase still bound, per cent of control (TNNI3K (human)) was 7.6%. The kinase still bound, per cent of control (PDGFRB (human)) was 0%, the kinase still bound, per cent of control (TTK (human)) was 0% and the kinase still bound, per cent of control (PDPK1 (human)) was 5.8%. It also gave a kinase still bound, per cent of control (ABL1 (human)) of 0.6%, a kinase still bound, per cent of control (EPHA2 (human)) of 1.5% and a kinase still bound, per cent of control [1] of 0.1%. The kinase still bound, per cent of control (FGR (human)) was 0.1%, the kinase still bound, per cent of control (CAMKK1 (human)) was 0.1% and the kinase still bound, per cent of control (SLK (human)) was 0%. The “kinase still bound, per cent of control” value (MAPK12 (human)) was “no effect (inactive)”, the “kinase still bound, per cent of control” value (CSNK1A1L (human)) was “no effect (inactive)” and the kinase still bound, per cent of control (EPHA5 (human)) was 0%. For the same molecule, the kinase still bound, per cent of control (TEK (human)) was 0.4%, the kinase still bound, per cent of control (ITK (human)) was 0.1% and the kinase still bound, per cent of control (ACVRL1 (human)) was 0%. The kinase still bound, per cent of control (CDK2 (human)) was 28.3%, the kinase still bound, per cent of control (DAPK2 (human)) was 3.8% and the kinase still bound, per cent of control (MAP4K5 (human)) was 0%. For the same molecule, the kinase still bound, per cent of control (ULK3 (human)) was 0%, the kinase still bound, per cent of control (DAPK3 (human)) was 2.1% and the “kinase still bound, per cent of control” value (CSNK1G2 (human)) was “no effect (inactive)”. For the same molecule, the kinase still bound, per cent of control (EPHA1 (human)) was 0.2%, the kinase still bound, per cent of control (PLK4 (human)) was 0% and the kinase still bound, per cent of control (TNK1 (human)) was 1%. For the same molecule, the kinase still bound, per cent of control (HCK (human)) was 0%.
In the case of `c1ccc(-c2n[nH]cc2-c2ccnc3ccccc23)nc1`, the “kinase still bound, per cent of control” value (STK17A (human)) is reported as “no effect (inactive)”, the “kinase still bound, per cent of control” value (MERTK (human)) is reported as “no effect (inactive)” and the “kinase still bound, per cent of control” value (MAP4K1 (human)) is reported as “no effect (inactive)”. The “kinase still bound, per cent of control” value (EPHB1 (human)) was “no effect (inactive)”, the “kinase still bound, per cent of control” value (MKNK2 (human)) was “no effect (inactive)” and the “kinase still bound, per cent of control” value (STK17B (human)) was “no effect (inactive)”. For the same molecule, the “kinase still bound, per cent of control” value (GSK3A (human)) was “no effect (inactive)”, the “kinase still bound, per cent of control” value (FRK (human)) was “no effect (inactive)” and the “kinase still bound, per cent of control” value (PRKAA1 (human)) was “no effect (inactive)”. The “kinase still bound, per cent of control” value (SRPK1 (human)) was “no effect (inactive)”, the “kinase still bound, per cent of control” value (CSNK2A2 (human)) was “no effect (inactive)” and the “kinase still bound, per cent of control” value (MET (human)) was “no effect (inactive)”. The “kinase still bound, per cent of control” value (LCK (human)) was “no effect (inactive)”, the “kinase still bound, per cent of control” value (TNNI3K (human)) was “no effect (inactive)” and the “kinase still bound, per cent of control” value (PDGFRB (human)) was “no effect (inactive)”. The “kinase still bound, per cent of control” value (TTK (human)) was “no effect (inactive)”, the “kinase still bound, per cent of control” value (PDPK1 (human)) was “no effect (inactive)” and the “kinase still bound, per cent of control” value (EPHA2 (human)) was “no effect (inactive)”. For the same molecule, the “kinase still bound, per cent of control” value [1] was “no effect (inactive)”, the “kinase still bound, per cent of control” value (FGR (human)) was “no effect (inactive)” and the “kinase still bound, per cent of control” value (CAMKK1 (human)) was “no effect (inactive)”. For the same molecule, the “kinase still bound, per cent of control” value (SLK (human)) was “no effect (inactive)”, the “kinase still bound, per cent of control” value (MAPK12 (human)) was “no effect (inactive)” and the “kinase still bound, per cent of control” value (EPHA5 (human)) was “no effect (inactive)”. For the same molecule, the “kinase still bound, per cent of control” value (TEK (human)) was “no effect (inactive)”, the “kinase still bound, per cent of control” value (ITK (human)) was “no effect (inactive)” and the “kinase still bound, per cent of control” value (ACVRL1 (human)) was “no effect (inactive)”. The “kinase still bound, per cent of control” value (CDK2 (human)) was “no effect (inactive)”, the “kinase still bound, per cent of control” value (DAPK2 (human)) was “no effect (inactive)” and the “kinase still bound, per cent of control” value (MAP4K5 (human)) was “no effect (inactive)”. The “kinase still bound, per cent of control” value (ULK3 (human)) was “no effect (inactive)”, the “kinase still bound, per cent of control” value (DAPK3 (human)) was “no effect (inactive)” and the “kinase still bound, per cent of control” value (CSNK1G2 (human)) was “no effect (inactive)”. The “kinase still bound, per cent of control” value (EPHA1 (human)) was “no effect (inactive)”, the “kinase still bound, per cent of control” value (PLK4 (human)) was “no effect (inactive)” and the “kinase still bound, per cent of control” value (TNK1 (human)) was “no effect (inactive)”. The “kinase still bound, per cent of control” value (HCK (human)) was “no effect (inactive)”.
